# In US20080255134A1 (Artesian Therapeutics, Inc., priority 2004, published 2008):
# Where two headings read alike, the source gives them in different places.
# Tests used:
# [1] = system: isolated ventricular myocytes; assay: Sarcomere shortening (contractility) in isolated ventricular myocytes; type: cell-based, rabbit
# Description: […] Isoproterenol, a potent β-Adrenergic agonist, can produce large increases in cardiac contraction, calcium transient amplitude, and the rates of relaxation (acceleration of relaxation or lusitropic effect). The effects of isoproterenol are then antagonized with different concentrations of a compound of the present invention.
# Cardiac myocytes were digested from healthy white New Zealand male rabbits (3-5 lbs), with enzymatic digestion. Briefly, each animal is anesthetized with ketamine (50 mg/kg) and xylazine (6 mg/kg)-IM injection in hind limb. Once the animal was sedated (˜10-15 min), 0.1-0.3 ml of pentobarbital was injected into the ear vein. The heart was exposed by a cut just below the rib-cage and bilateral thoracotomy and removed rapidly ensuring that aorta remains intact. The heart was immediately placed in oxygenated NT with Ca^2+ placed on ice for rinsing the blood out, cleared from vessels and pericardium, cannulated and maintained at 37° C. The heart was retrogradedly perfused and tissue digested with collagenase and protease. Digested myocytes were subsequently stored in 0.1 mM Ca^2+ normal tyrodes for further analyses. Sarcomere length changes upon treatment with test compounds were recorded at 37° C. in the presence of 2 mM calcium and analyzed with an IonOptix system. Sarcomere length data was acquired for each myocyte over an average of 10 beats duration, at pacing rates of 1, 2, and 3 Hz. Basal percent sarcomere shortening and length-frequency relation of each myocyte was evaluated, and serve as a measure of cellular viability.
# In vitro studies were performed using rabbit ventricular tissue, to examine the effects of Compounds 25 and 8c on myocyte contractility. New Zealand male rabbits (1.5-2.5 kg) were anesthetized with ketamine (50 mg/kg) and xylazine (6 mg/kg)-IM. The heart was exposed and removed rapidly to ensure that the aorta remained intact. The ventricular tissue was digested enzymatically. Sarcomere shortening was measured in the presence of 2 mM calcium at 37° C. using an IonOptix system; reported values were at 2 Hz pacing frequency.
# [2] = target: T1, β1-adrenergic receptor (Rattus norvegicus, UniProt P18090); assay: β1-adrenergic radioligand binding assay using rat cortical membranes
# T1 construct: from tissue; host or cells: rat cortical membranes
# T1 sequence (P18090 whole entry): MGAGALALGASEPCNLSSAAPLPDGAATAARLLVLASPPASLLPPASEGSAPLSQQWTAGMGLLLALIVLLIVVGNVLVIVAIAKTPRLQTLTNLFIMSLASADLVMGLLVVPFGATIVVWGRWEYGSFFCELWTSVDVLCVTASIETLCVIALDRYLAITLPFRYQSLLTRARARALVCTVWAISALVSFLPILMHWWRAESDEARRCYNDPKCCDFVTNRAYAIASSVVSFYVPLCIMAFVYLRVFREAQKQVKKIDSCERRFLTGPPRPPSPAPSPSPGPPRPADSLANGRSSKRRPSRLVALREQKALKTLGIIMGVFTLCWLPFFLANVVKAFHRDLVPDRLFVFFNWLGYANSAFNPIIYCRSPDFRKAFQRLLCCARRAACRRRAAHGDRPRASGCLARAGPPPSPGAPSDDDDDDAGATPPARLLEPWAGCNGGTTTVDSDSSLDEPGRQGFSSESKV
# Description: (§1) Non-selective β-adrenergic and β1-adrenergic radioligand binding assays were performed using rat cortical membranes; β2-adrenergic receptor assays were performed using membranes isolated from CHO cells expressing human, recombinant b2-adrenergic receptor; non-selective α1-adrenergic receptor assays were performed using rat forebrain membranes; and PDE3 binding assays were performed on human platelets. Values in percent illustrate percent inhibition at 1000 nM concentration.
# [3] = target: T2, human recombinant beta-2 receptors (Homo sapiens, UniProt P07550); assay: β2-receptor radioligand binding, [125I] iodocyanopindolol, CHO-WT21 cells
# T2 construct: expressed in transfected cells; host or cells: CHO-WT21 cells
# T2 sequence (P07550 whole entry): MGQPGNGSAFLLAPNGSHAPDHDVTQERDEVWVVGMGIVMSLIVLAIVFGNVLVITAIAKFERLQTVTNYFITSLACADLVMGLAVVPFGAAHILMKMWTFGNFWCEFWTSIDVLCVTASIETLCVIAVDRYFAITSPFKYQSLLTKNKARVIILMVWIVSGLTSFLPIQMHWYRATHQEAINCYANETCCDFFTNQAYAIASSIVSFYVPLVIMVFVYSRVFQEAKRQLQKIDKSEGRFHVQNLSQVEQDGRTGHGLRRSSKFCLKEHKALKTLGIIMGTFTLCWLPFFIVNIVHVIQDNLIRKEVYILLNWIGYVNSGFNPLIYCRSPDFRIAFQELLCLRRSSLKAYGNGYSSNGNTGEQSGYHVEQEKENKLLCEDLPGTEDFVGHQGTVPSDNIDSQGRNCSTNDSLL
# Description: as §1
# [4] = target: beta-receptors from rat cortical membranes; assay: Non-specific β-receptor radioligand binding, [3H]DHA; conditions: read-out: Non-selective β-adrenergic IC50
# Description: as §1
# [5] = system: human fetal cardiac fibroblasts; assay: Cyclic-AMP production by fluorescence (intrinsic sympathomimetic activity); type: cell-based; conditions: IBMX (750 μM) present; compared to isoproterenol or forskolin; any concentration tested
# Description: The effect of Compound 8c on cyclic-AMP production was determined in human fetal cardiac fibroblasts by fluorescence, presented in FIG. 18 as [F−Fo)/Fo], mean±SEM, N=4. IBMX (750 μM) was present in all assays.
# [6] = target: T3, PDE3 (Homo sapiens, UniProt Q14432); assay: In vitro assay for cAMP PDE-3 inhibitory activity; type: biochemical
# T3 construct: from tissue; host or cells: human platelets
# T3 sequence (Q14432 whole entry): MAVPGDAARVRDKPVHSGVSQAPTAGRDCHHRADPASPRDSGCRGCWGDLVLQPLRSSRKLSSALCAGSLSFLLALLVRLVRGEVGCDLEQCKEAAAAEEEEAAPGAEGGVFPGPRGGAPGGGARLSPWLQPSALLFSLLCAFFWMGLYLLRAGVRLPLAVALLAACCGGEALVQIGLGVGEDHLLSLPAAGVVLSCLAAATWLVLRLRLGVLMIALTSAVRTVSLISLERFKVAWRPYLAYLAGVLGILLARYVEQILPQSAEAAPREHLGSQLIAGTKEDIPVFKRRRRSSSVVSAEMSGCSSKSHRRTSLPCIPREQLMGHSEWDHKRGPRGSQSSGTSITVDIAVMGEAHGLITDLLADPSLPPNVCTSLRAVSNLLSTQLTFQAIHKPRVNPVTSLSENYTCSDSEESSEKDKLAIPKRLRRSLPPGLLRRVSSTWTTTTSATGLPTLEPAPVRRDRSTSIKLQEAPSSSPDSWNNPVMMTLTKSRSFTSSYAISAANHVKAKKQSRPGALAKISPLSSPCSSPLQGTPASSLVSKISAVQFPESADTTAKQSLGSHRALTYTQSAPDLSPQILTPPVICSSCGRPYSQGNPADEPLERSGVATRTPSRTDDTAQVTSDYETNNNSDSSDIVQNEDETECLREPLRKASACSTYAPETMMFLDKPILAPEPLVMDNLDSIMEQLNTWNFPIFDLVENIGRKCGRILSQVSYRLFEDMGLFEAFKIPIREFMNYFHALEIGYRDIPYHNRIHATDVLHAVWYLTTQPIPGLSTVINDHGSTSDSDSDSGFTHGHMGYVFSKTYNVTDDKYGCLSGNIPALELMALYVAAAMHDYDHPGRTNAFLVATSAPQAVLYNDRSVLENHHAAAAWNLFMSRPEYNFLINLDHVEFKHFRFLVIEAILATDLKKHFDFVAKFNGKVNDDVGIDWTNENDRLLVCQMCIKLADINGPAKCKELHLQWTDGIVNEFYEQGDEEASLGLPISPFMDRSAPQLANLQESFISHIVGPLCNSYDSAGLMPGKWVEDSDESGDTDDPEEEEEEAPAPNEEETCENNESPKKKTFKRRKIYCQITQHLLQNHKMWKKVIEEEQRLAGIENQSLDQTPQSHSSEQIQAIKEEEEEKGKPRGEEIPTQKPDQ
# Description: Human platelet cyclic AMP phosphodiesterase was prepared according to the method of Alvarez et al., Mol. Pharmacol. 29: 554 (1986). The PDE incubation medium contained 10 mM Tris-HCl buffer, pH 7.7, 10 mM MgSO4, and 1 μM […] (0.2 μCi) in a total volume of 1.0 mL. Test compounds were dissolved in DMSO immediately prior to addition to the incubation medium, and the resulting mixture was allowed to stand for 10 minutes prior to the addition of enzyme. Following the addition of PDE, the contents were mixed and incubated for 10 minutes at 30° C. Three assays each were performed for each of five test compound concentrations, the mean of the determinations (n=3) at each concentration was plotted, and IC50 values were determined graphically.
# as §1, with “The ability of Compounds 25 and 8c to inhibit PDE3 and β-adrenergic receptor activity was examined both in vitro and in vivo. […] Non-selective” for “Non-selective”
# [7] = target: α1-adrenergic receptor; assay: Non-selective α1-adrenergic receptor assay using rat forebrain membranes; type: binding
# Description: as §1, with “The ability of Compounds 25 and 8c to inhibit PDE3 and β-adrenergic receptor activity was examined both in vitro and in vivo. […] Non-selective” for “Non-selective”
# [8] = system: White New Zealand male rabbits; assay: In vivo β-adrenergic blockade, isoproterenol challenge (Protocol 1); design: species or system rabbit
# Description: (§2) Studies were performed on White New Zealand male rabbits (2-3 kg weight). Animals were initially anesthetized with ketamine (50 mg/kg; IM) and xylazine (6 mg/kg, IM). Subsequently, animals were intubated (via tracheotomy; 3 mm tube) and ventilated with 2% isoflurane (mixed in 95% O2+5% CO2). Each rabbit was instrumented for LV pressure (3F Millar catheter) through right carotid artery, arterial pressure (3F catheter, Cook Instruments) through left femoral artery, which was connected to a fluid-filled pressure transducer (BD Instruments), and ECG. Both pressure transducers were zeroed against atmospheric pressure, and calibrated before each study using an analog manometer. Upon completion of instrumentation, isoflurane was reduced to 1.25%, and the animal was covered for maintenance of body core temperature. Arterial and LV blood pressures (LVP) and the ECG signals were simultaneously digitally recorded on a PC. The recording system (Gould Instruments) and the corresponding software (Ponema, Gould Instruments) facilitated detailed calculation of various parameters directly from all signals and record on a separate file with a 1 sec resolution. Upon completion of the study protocol, rabbits were euthenized by isoflurane overdose (5% for at least 1 minute) and cardiac arrest through IV infusion of 5 ml 3 molar potassium chloride.
# (§3) Once the physiological variables were stable, effects of each drug on hemodynamics and ECG were determined based on two different protocols: 1) infusion of a compound of the present invention to determine the effects of the compound itself mainly on contractility, and other hemodynamic indices; and 2) infusion of a compound of the present invention while the system was challenged with 0.5 ug/kg isoproterenol to determine the beta-adrenergic antagonism properties of each tested compound.
# (§4) White New Zealand male rabbits (2-3 kg) were anesthetized and ventilated (95% O2+5% CO2) with 1.25% isoflurane. Each animal was instrumented for LV pressure (Millar, through left carotid artery), arterial pressure (left femoral artery), infusion (jugular vein), and electrocardiogram. The animals were administered intravenously based on one of these protocols:
# Protocol 1: β-adrenergic blockade (isoproterenol challenge).
# [9] = system: White New Zealand male rabbits; assay: as above; design: species or system rabbit; dose or concentration left out as unconfirmed; conditions: during isoproterenol challenge, intravenous, FIG. 10
# [10] = target: T4, human recombinant beta-1 receptors (Homo sapiens, UniProt P08588); assay: β1-receptor radioligand binding, [125I] iodocyanopindolol, CHO-REX16 cells; conditions: at 100 nM
# T4 construct: expressed in transfected cells; host or cells: CHO-REX16 cells
# T4 sequence (P08588 whole entry): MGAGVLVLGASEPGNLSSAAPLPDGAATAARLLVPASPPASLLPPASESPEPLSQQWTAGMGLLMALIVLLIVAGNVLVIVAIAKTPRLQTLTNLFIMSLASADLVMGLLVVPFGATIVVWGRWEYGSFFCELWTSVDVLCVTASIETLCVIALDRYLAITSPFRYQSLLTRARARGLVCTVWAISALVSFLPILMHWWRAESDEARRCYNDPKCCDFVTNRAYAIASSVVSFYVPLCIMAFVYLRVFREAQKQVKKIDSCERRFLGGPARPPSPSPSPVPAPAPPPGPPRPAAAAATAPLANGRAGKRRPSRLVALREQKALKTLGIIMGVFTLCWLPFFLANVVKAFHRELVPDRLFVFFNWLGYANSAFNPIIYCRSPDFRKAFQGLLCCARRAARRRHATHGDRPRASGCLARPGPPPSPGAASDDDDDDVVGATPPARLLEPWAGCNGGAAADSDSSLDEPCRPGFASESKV
# Description: […] receptor binding was measured in human recombinant beta-1 receptors expressed in CHO-REX16 cells, using [^125I] (-) iodocyanopindolol (2000 Ci/mmol) as the radioligand, as described in Kalaria et al., J. Neurochem. 53: 1772-81 (1998), and Minneman et al., Mol. Pharmacol. 16: 34-46 (1979).
# [11] = system: White New Zealand male rabbits; assay: In vivo hemodynamic effects of compounds administered alone (Protocol 2); design: species or system rabbit
# Description: as §2, §3, §4
# Protocol 2: PDE3 inhibition (effects of compounds when administered alone).
structure (smiles),measurement,setting,value
"O=C1CCC(c2ccc(OCC(=O)N3CCC(NC[C@H](O)COc4ccccc4Cl)CC3)c(Cl)c2)=NN1 [Compound 8c, 6-[3-Chloro-4-(2-{4-[3-(2-chloro-phenoxy)-2-hydroxy-propylamino]-piperidin-1-yl}-2-oxo-ethoxy)-phenyl]-4,5-dihydro-2H-pyridazin-3-one]",blocking of isoproterenol effect on myocyte contractility,[1]; 0.1 μM isoproterenol (not shown),blocking the effects of 0.1 mM isoproterenol
same,contractility (sarcomere shortening) in isolated ventricular myocytes,"[1]; 2 mM calcium, 37° C., 2 Hz pacing frequency",increased contractility
same,IC50,[2],5 nM
same,inhibition at 0.1 µM,[3]; at 100 nM,> 25%
same,IC50,[3]; membranes from CHO cells expressing human recombinant β2-adrenergic receptor,0.8 nM
same,IC50,[4],14 nM
same,intrinsic sympathomimetic activity (cyclic-AMP production),[5],did not possess intrinsic sympathomimetic activity
same,IC50,"[6]; human platelet cyclic AMP phosphodiesterase, bound stated, read-out: PDE3 inhibition IC50",< 1000 nM
same,IC50,"[6]; human platelets, read-out: PDE3 IC50",150 nM
same,IC50,[7],226 nM
same,decrease of left ventricular contractility (% of isoproterenol effect),"[8]; doses that completely diminished isoproterenol-dependent increase in heart rate: atenolol 1 mg/kg, carvedilol 0.3 mg/kg, Compound 8c 1 mg/kg, mean±SEM",73±4%
same,β-adrenergic antagonism on heart rate (HR),"[8]; during isoproterenol challenge (0.5 μg/kg), FIG. 11",dose-dependent β-adrenergic antagonism
same,β-adrenergic antagonism on left ventricular contractility,[9],potent dose-dependent β-adrenergic antagonism
same,inhibition at 0.1 µM,[10],> 25%
same,heart rate when administered alone,"[11]; Protocol 2, with and without atropine and bilateral vagotomy (FIG. 16)",did not increase heart rate
same,mean arterial pressure,"[11]; doses that completely diminished isoproterenol-dependent increase in heart rate, Protocol 2, FIG. 15",did not have a significant effect
same,left ventricular contractility when administered alone,"[11]; protocol 2, relative to control, FIGS. 2, 12",increased or maintained contractility in a dose-dependent manner
